Numbers after ± are expanded uncertainties.
Legend:
[1] = xn = mol fraction of the nth substance listed; details: 100 kPa, Liquid; for viscosity: Capillary tube (Ostwald / Ubbelohde) method; for mass density: Vibrating tube method
[2] = refractive index (Na D-line) (dimensionless); xn = mol fraction of the nth substance listed; details: 101 kPa, Liquid, Standard Abbe refractometry

C1CC[C@H]2CCCC[C@@H]2C1 [trans-decahydronaphthalene] + CCCCCCCCCC
Details	mass density, [1] [kg/m3]	refractive index, [2]	viscosity, [1] [mPa·s]
293.15 K, x1 = 0.1035	743.5 ± 0.22	–	0.98 ± 0.012
293.15 K, x1 = 0.2016	755.54 ± 0.21	–	1.035 ± 0.012
293.15 K, x1 = 0.3001	768 ± 0.2	–	1.099 ± 0.012
293.15 K, x1 = 0.3994	781.01 ± 0.19	–	1.175 ± 0.013
293.15 K, x1 = 0.5036	795.1 ± 0.18	–	1.272 ± 0.013
293.15 K, x1 = 0.6062	809.53 ± 0.17	–	1.388 ± 0.013
293.15 K, x1 = 0.6989	822.98 ± 0.16	–	1.514 ± 0.013
293.15 K, x1 = 0.7891	836.46 ± 0.15	–	1.649 ± 0.014
293.15 K, x1 = 0.8949	852.8 ± 0.14	–	1.848 ± 0.014
293.15 K, x1 = 1	869.78 ± 0.13	–	2.112 ± 0.015
298.15 K, x1 = 0.1035	739.74 ± 0.22	1.4144 ± 0.0007	0.91 ± 0.012
298.15 K, x1 = 0.2016	751.79 ± 0.21	1.4192 ± 0.0007	0.958 ± 0.012
298.15 K, x1 = 0.3001	764.27 ± 0.2	1.4243 ± 0.0007	1.019 ± 0.012
298.15 K, x1 = 0.3994	777.28 ± 0.19	1.4301 ± 0.0007	1.087 ± 0.012
298.15 K, x1 = 0.5036	791.38 ± 0.18	1.4355 ± 0.0007	1.174 ± 0.012
298.15 K, x1 = 0.6062	805.81 ± 0.17	1.4414 ± 0.0007	1.28 ± 0.013
298.15 K, x1 = 0.6989	819.26 ± 0.16	1.4471 ± 0.0007	1.394 ± 0.013
298.15 K, x1 = 0.7891	832.75 ± 0.15	1.4524 ± 0.0007	1.514 ± 0.013
298.15 K, x1 = 0.8949	849.09 ± 0.15	1.4592 ± 0.0007	1.694 ± 0.014
298.15 K, x1 = 1	866.07 ± 0.13	1.4662 ± 0.0007	1.925 ± 0.015
303.15 K, x1 = 0.1035	735.97 ± 0.22	–	0.848 ± 0.012
303.15 K, x1 = 0.2016	748.02 ± 0.21	–	0.89 ± 0.012
303.15 K, x1 = 0.3001	760.51 ± 0.2	–	0.946 ± 0.012
303.15 K, x1 = 0.3994	773.52 ± 0.19	–	1.01 ± 0.012
303.15 K, x1 = 0.5036	787.63 ± 0.18	–	1.09 ± 0.012
303.15 K, x1 = 0.6062	802.07 ± 0.17	–	1.185 ± 0.012
303.15 K, x1 = 0.6989	815.53 ± 0.16	–	1.285 ± 0.013
303.15 K, x1 = 0.7891	829.02 ± 0.15	–	1.396 ± 0.013
303.15 K, x1 = 0.8949	845.37 ± 0.15	–	1.555 ± 0.013
303.15 K, x1 = 1	862.34 ± 0.14	–	1.769 ± 0.014
308.15 K, x1 = 0.1035	732.17 ± 0.22	1.4099 ± 0.0007	0.794 ± 0.012
308.15 K, x1 = 0.2016	744.24 ± 0.21	1.4153 ± 0.0007	0.834 ± 0.012
308.15 K, x1 = 0.3001	756.74 ± 0.2	1.4204 ± 0.0007	0.884 ± 0.012
308.15 K, x1 = 0.3994	769.76 ± 0.19	1.4256 ± 0.0007	0.941 ± 0.012
308.15 K, x1 = 0.5036	783.88 ± 0.18	1.4317 ± 0.0007	1.013 ± 0.012
308.15 K, x1 = 0.6062	798.32 ± 0.17	1.4371 ± 0.0007	1.101 ± 0.012
308.15 K, x1 = 0.6989	811.79 ± 0.16	1.4431 ± 0.0007	1.197 ± 0.012
308.15 K, x1 = 0.7891	825.29 ± 0.15	1.4484 ± 0.0007	1.293 ± 0.013
308.15 K, x1 = 0.8949	841.64 ± 0.15	1.4553 ± 0.0007	1.436 ± 0.013
308.15 K, x1 = 1	858.61 ± 0.14	1.4618 ± 0.0007	1.628 ± 0.013
313.15 K, x1 = 0.1035	728.37 ± 0.22	–	0.744 ± 0.011
313.15 K, x1 = 0.2016	740.45 ± 0.21	–	0.778 ± 0.011
313.15 K, x1 = 0.3001	752.95 ± 0.2	–	0.828 ± 0.011
313.15 K, x1 = 0.3994	765.99 ± 0.19	–	0.881 ± 0.012
313.15 K, x1 = 0.5036	780.11 ± 0.18	–	0.947 ± 0.012
313.15 K, x1 = 0.6062	794.56 ± 0.17	–	1.024 ± 0.012
313.15 K, x1 = 0.6989	808.04 ± 0.16	–	1.113 ± 0.012
313.15 K, x1 = 0.7891	821.54 ± 0.16	–	1.201 ± 0.012
313.15 K, x1 = 0.8949	837.9 ± 0.15	–	1.33 ± 0.013
313.15 K, x1 = 1	854.88 ± 0.14	–	1.505 ± 0.013
318.15 K, x1 = 0.1035	724.55 ± 0.22	1.4055 ± 0.0007	0.702 ± 0.011
318.15 K, x1 = 0.2016	736.64 ± 0.21	1.4112 ± 0.0007	0.734 ± 0.011
318.15 K, x1 = 0.3001	749.16 ± 0.2	1.4162 ± 0.0007	0.777 ± 0.011
318.15 K, x1 = 0.3994	762.2 ± 0.19	1.4211 ± 0.0007	0.826 ± 0.011
318.15 K, x1 = 0.5036	776.34 ± 0.18	1.4271 ± 0.0007	0.887 ± 0.012
318.15 K, x1 = 0.6062	790.8 ± 0.17	1.4336 ± 0.0007	0.959 ± 0.012
318.15 K, x1 = 0.6989	804.28 ± 0.16	1.4389 ± 0.0007	1.032 ± 0.012
318.15 K, x1 = 0.7891	817.79 ± 0.16	1.4448 ± 0.0007	1.119 ± 0.012
318.15 K, x1 = 0.8949	834.16 ± 0.15	1.4518 ± 0.0007	1.237 ± 0.012
318.15 K, x1 = 1	851.14 ± 0.14	1.4581 ± 0.0007	1.394 ± 0.013
323.15 K, x1 = 0.1035	720.72 ± 0.22	–	0.662 ± 0.011
323.15 K, x1 = 0.2016	732.82 ± 0.21	–	0.696 ± 0.011
323.15 K, x1 = 0.3001	745.35 ± 0.2	–	0.732 ± 0.011
323.15 K, x1 = 0.3994	758.4 ± 0.19	–	0.777 ± 0.011
323.15 K, x1 = 0.5036	772.55 ± 0.18	–	0.834 ± 0.011
323.15 K, x1 = 0.6062	787.02 ± 0.17	–	0.896 ± 0.012
323.15 K, x1 = 0.6989	800.51 ± 0.16	–	0.966 ± 0.012
323.15 K, x1 = 0.7891	814.04 ± 0.16	–	1.046 ± 0.012
323.15 K, x1 = 0.8949	830.41 ± 0.15	–	1.154 ± 0.012
323.15 K, x1 = 1	847.4 ± 0.14	–	1.295 ± 0.012
